The values that follow come from patent publication US7045516B1, “Benzoxazole derivatives and drugs containing the same as the active ingredient” (Koichi Shudo, priority 1998, dated 2006).

One series has as its target T1, 5-HT3 receptor (Cavia porcellus, UniProt O70212).
T1 construct: From ileum of Hartley male guinea pigs (500 g to 800 g) longitudinal muscle samples of about 20 mm were prepared; from tissue; host or cells: guinea pig ileum longitudinal muscle
T1 sequence (O70212 20-490): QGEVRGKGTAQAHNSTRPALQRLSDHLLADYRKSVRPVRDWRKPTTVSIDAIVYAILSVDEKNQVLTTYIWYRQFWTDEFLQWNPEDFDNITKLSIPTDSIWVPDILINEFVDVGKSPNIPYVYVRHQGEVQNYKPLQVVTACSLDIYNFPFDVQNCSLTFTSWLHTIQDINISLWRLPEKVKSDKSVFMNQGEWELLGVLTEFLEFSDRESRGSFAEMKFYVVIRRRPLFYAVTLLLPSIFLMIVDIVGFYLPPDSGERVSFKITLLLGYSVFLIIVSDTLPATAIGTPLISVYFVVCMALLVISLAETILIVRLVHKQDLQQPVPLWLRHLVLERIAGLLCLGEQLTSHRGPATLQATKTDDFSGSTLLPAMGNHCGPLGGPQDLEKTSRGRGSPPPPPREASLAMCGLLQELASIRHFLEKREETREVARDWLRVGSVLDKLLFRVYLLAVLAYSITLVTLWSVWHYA
The experiment in a line: Test for 5-HT3 receptor activating action and antagonism, guinea pig ileum longitudinal muscle contraction. Format: cell-based. To be noted: for EC50: negative logarithm of molar concentration giving 50% maximum contraction, read-out: Activating action pD2 (converted); for Activating action i.a.: ratio of maximum contraction by compound relative to maximum contraction with 10 μM 5-HT (defined as 1); for inhibition at 10 µM: inhibitory ratio of contraction by 10 μM 5-HT in sample treated beforehand with 10 μM compound, guinea pig ileum longitudinal muscle. As for the experimental part: From ileum of Hartley male guinea pigs (500 g to 800 g) longitudinal muscle samples of about 20 mm were prepared. The samples were suspended at a resting tension of about 0.5 g in Magnus tubes, and isometric contraction reaction was measured. The samples were treated beforehand twice with 0.3 μM of 5-HT for 1 hour to desensitize the 5-HT4 receptors, and then given with 5-HT at a concentration of 0.1 to 30 μM to examine dose-dependent contraction reaction via the 5-HT3 receptors. […] The index of the 5-HT3 receptor activating action, i.a., is represented as a ratio of the maximum reaction obtained by each compound relative to the maximum contraction reaction obtained with 10 μM of 5-HT, which is defined to be 1. The index of strength of binding with the 5-HT3 receptor, pD2, is represented with a negative logarithmic value of a concentration (molar concentration) that gave 50% maximum contraction reaction for each compound. As for the antagonistic activity of each compound against the 5-HT3 receptor, inhibitory ratio was calculated, which represents a ratio of contraction obtained by applying 10 μM of 5-HT to a sample treated beforehand with 10 μM of each compound relative to the contraction obtained by applying 10 μM of 5-HT to an untreated sample.

Series [1] relates to large bowel transportation ability of normal mice. The series can be described thus: Effect on large bowel transportation ability of normal mice (glass bead excretion). Format: in vivo, mouse. To be noted: ddY male mice, bead inserted after 30 minutes. On the procedure: G. et al. [Drug Dev. Res., 9, 241-247, (1986)] was determined as follows. Each test compound was orally administered to 5- to 7-week old ddY male mice starved for about 4 hours. […] After the insertion of the glass bead, time (second) from the insertion to excretion of the bead from the anus was measured, and the time was used as an index of large bowel transportation ability. The test was performed by using groups of mice each consisting of 9 to 11 mice, and all of the procedures were performed under no anesthesia.

Series [2] has as its system rat diarrhea under restriction stress. The series can be described thus: Inhibitory action for rat diarrhea under restriction stress. The series is classed as in vivo. The conditions noted are these: oral, 30 min before restraint, male Wistar rats, 3 hours, nonlinear least square method. On the procedure: L. Williams et al. [GASTROENTEROLOGY, 94, 611–621 (1988)] was determined as follows, and the results were analyzed by the nonlinear least square method. 8-Week old male Wistar rats were starved from the evening of the day before the test. Each test compound was orally administered to the rats. After 30 minutes, the rats were constrained by binding of their fore-limbs and hind-limbs with wires. The rats were left in individual gages on white sheets under luminescent lamps for 3 hours. […] The test was performed with groups of rats each consisting of 8 rats.

A short description of the next series: Reverse mutation test. As for the experimental part: A reverse mutagenicity test was performed using the compound of Example 1 (b) of the present specification, hydrochloride of 5,7-dimethyl-2-(1-piperazinyl)benzoxazole (C), hydrochloride of 5-chloro-7-methyl-2-(4-methyl-1-piperazinyl)benzoxazole (D), and hydrochloride of 5-chloro-7-methyl-2-(4-methyl-1-homopiperazinyl) benzoxazole (E) (compounds disclosed in Japanese Patent Publication (KOKAI) No. 10-29987/1998), and the compound described in Reference Example 4 of the present specification, i.e., hydrochloride of 5-chloro-7-methyl-2-(1-piperazinyl) benzoxazole (F) according to the method of T. Matsushima et al. (Noropoth K. H., Springer, Berlin-Heidelberg-New York, “Short-Term Test Systems For Detecting Carcinogens”, pp. 273–285, 1980) referred by the guideline 471 of ORGANIZATION FOR ECONOMIC CO-OPERATION AND DEVELOPMENT.

Each structure is given as a SMILES string. Read-outs that look alike come from different tables or passages of the source.

With `c1ccc2oc(N3CCCNCC3)nc2c1` [A, 2-(1-homopiperazinyl)benzoxazole, reference compound], at 5-HT3 receptor, the EC50 is 1700 nM and the Activating action i.a. is 0.32.

Regarding `Cc1cc(C)c2oc(N3CCN(C)CC3)nc2c1` [B, 5,7-dimethyl-2-(4-methyl-1-piperazinyl) benzoxazole, reference compound], at 5-HT3 receptor, the EC50 was 479 nM and the Activating action i.a. stood at 0.62.

Consider `Cc1cc(C)c2oc(N3CCNCC3)nc2c1` [C, 5,7-dimethyl-2-(1-piperazinyl)benzoxazole, reference compound], for which, at 5-HT3 receptor, the inhibition at 10 µM is 91%, the EC50 is 70.8 nM and the Activating action i.a. came out at 0.12.

As to `Cc1cc(Cl)cc2nc(N3CCN(C)CC3)oc12` [D, 5-chloro-7-methyl-2-(4-methyl-1-piperazinyl)benzoxazole, reference compound], on 5-HT3 receptor, the inhibition at 10 µM was found to be 94%, the EC50 was 162 nM and the Activating action i.a. turned out to be 0.27.

As to `Cc1cc(Cl)cc2nc(N3CCCN(C)CC3)oc12` [E, 5-chloro-7-methyl-2-(4-methyl-1-homopiperazinyl) benzoxazole, reference compound], at 5-HT3 receptor, the inhibition at 10 µM turned out to be 98%, the EC50 is 21.4 nM and the Activating action i.a. stood at 0.17.

On to `Cc1cc(Cl)cc2nc(N3CCCNCC3)oc12` [Example 1 (a), 5-Chloro-2-(1-homopiperazinyl)-7-methylbenzoxazole], for which, on 5-HT3 receptor, the inhibition at 10 µM is 95%, the EC50 was 33.1 nM and the Activating action i.a. is 0.12.

With `COc1cc(Cl)cc2nc(N3CCCNCC3)oc12` [Example 2, 5-Chloro-2-(1-homopiperazinyl)-7-methoxybenzoxazole], at 5-HT3 receptor, the inhibition at 10 µM is 88%, the EC50 was 295 nM and the Activating action i.a. was found to be 0.36.

In the case of `Cc1cc2oc(N3CCCNCC3)nc2cc1Cl` [Example 3, 5-Chloro-2-(1-homopiperazinyl)-6-methylbenzoxazole], on 5-HT3 receptor, the inhibition at 10 µM is 88%, the EC50 is 191 nM and the Activating action i.a. is 0.08.

`CCc1cc(Cl)cc2nc(N3CCCNCC3)oc12` [Example 4, 5-Chloro-7-ethyl-2-(1-homopiperazinyl) benzoxazole]: on 5-HT3 receptor, the inhibition at 10 µM is 89% and the EC50 was 17.8 nM.

On to `CC(=O)Nc1cc(Cl)cc2nc(N3CCCNCC3)oc12` [Example 6, 7-Acetamino-5-chloro-2-(1-homopiperazinyl)benzoxazole], for which, at 5-HT3 receptor, the inhibition at 10 µM was determined as 90%, the EC50 was 3980 nM and the Activating action i.a. was found to be 0.35.

`CC(C)(C)OC(=O)Nc1cc(Cl)cc2nc(N3CCCNCC3)oc12` [Example 7, 7-(tert-Butyloxycarbonylamino)-5-chloro-2-(1-homopiperazinyl)benzoxazole]: on 5-HT3 receptor, the inhibition at 10 µM was found to be 83%, the EC50 was 2000 nM and the Activating action i.a. is on record as 0.31.

On to `Cl.Nc1cc(Cl)cc2nc(N3CCCNCC3)oc12` [Example 8, 7-Amino-5-chloro-2-(1-homopiperazinyl) benzoxazole hydrochloride], for which, at 5-HT3 receptor, the inhibition at 10 µM is 83%, the EC50 is 437 nM and the Activating action i.a. is 0.55.

With `Clc1cc(Cl)c2oc(N3CCCNCC3)nc2c1` [Example 9, 5,7-Dichloro-2-(1-homopiperazinyl) benzoxazole], at 5-HT3 receptor, the inhibition at 10 µM came to 97%, the EC50 is 56.2 nM and the Activating action i.a. came to 0.13.

As for `Cc1c(Cl)cc2nc(N3CCCNCC3)oc2c1Cl` [Example 10, 5,7-Dichloro-2-(1-homopiperazinyl)-6-methylbenzoxazole], on 5-HT3 receptor, the inhibition at 10 µM worked out at 96%, the EC50 was 56.2 nM and the Activating action i.a. amounted to 0.09.

In the case of `Cc1c(Cl)cc2nc(N3CCCNCC3)oc2c1C` [Example 11, 5-Chloro-2-(1-homopiperazinyl)-6,7-dimethylbenzoxazole], at 5-HT3 receptor, the inhibition at 10 µM came to 89%, the EC50 is 35.5 nM and the Activating action i.a. came out at 0.14.

Turning to `Clc1cc(NCc2ccccc2)c2oc(N3CCCNCC3)nc2c1` [Example 12, 7-(Benzylamino)-5-chloro-2-(1-homopiperazinyl) benzoxazole], at 5-HT3 receptor, the inhibition at 10 µM amounted to 88%, the EC50 was 191 nM and the Activating action i.a. was found to be 0.05.

In the case of `CS(=O)(=O)Nc1cc(Cl)cc2nc(N3CCCNCC3)oc12.Cl` [Example 14, 5-Chloro-7-methanesulfonylamino-2-(1-homopiperazinyl) benzoxazole hydrochloride], at 5-HT3 receptor, the inhibition at 10 µM was 46%, the EC50 was 3390 nM and the Activating action i.a. was 0.13.

As for `CC(C)C(=O)Nc1cc(Cl)cc2nc(N3CCCNCC3)oc12.Cl` [Example 16, 5-Chloro-7-isobutyrylamino-2-(1-homopiperazinyl) benzoxazole hydrochloride], on 5-HT3 receptor, the inhibition at 10 µM amounted to 15%, the EC50 is 5620 nM and the Activating action i.a. stood at 0.10.

Consider `Cc1cc(Cl)cc2nc(N3CCNCC3)oc12` [F, 5-chloro-7-methyl-2-(1-piperazinyl)benzoxazole, reference compound], for which, on 5-HT3 receptor, the inhibition at 10 µM came to 90%, the EC50 is 27.5 nM and the Activating action i.a. was 0.14.

For the compound `CN1C2CCCC1CC(NC(=O)c1nn(C)c3ccccc13)C2` (stereo not shown) [G, Granisetron], the “time from insertion to excretion of glass bead” value in series [1] (dose 3 mg/kg oral) turned out to be 206.44 s; in series [1] (dose 10 mg/kg oral), 258.47 s; in series [1] (dose 30 mg/kg oral) it was 475.93 s. In series [2] (Rattus norvegicus), this compound registered a median effective dose (ED50) of 0.025 mg/kg.

As to `Cc1cc(Cl)cc2nc(N3CCCN(C)CC3)oc12.Cl` [Hydrochloride of E, hydrochloride of 5-chloro-7-methyl-2-(4-methyl-1-homopiperazinyl)benzoxazole], in “Reverse mutation test”, the reverse mutagenicity result is “negative”. Also, the “time from insertion to excretion of glass bead” value in series [1] (dose 3 mg/kg oral) turned out to be 271.91 s; in series [1] (dose 10 mg/kg oral), 318.95 s; in series [1] (dose 30 mg/kg oral), 248.56 s. In series [2], this compound registered an ED50 value of 0.0041 mg/kg.

Regarding `Cc1cc(Cl)cc2nc(N3CCNCC3)oc12.Cl` [hydrochloride of Compound F, hydrochloride of 5-chloro-7-methyl-2-(1-piperazinyl) benzoxazole], the reverse mutagenicity entry in “Reverse mutation test” (method of Matsushima et al., OECD guideline 471) is recorded as “positive”.
